Assay results from PubChem BioAssay AID2060621 (Molecular Pharmacology Branch, DTP, NCI, 2025).
Where “and” joins values, the source holds several entries; their conditions need not be identical. Equal values may be shown once. Each block holds one compound with its values, some of them ahead of it.

Tested on: 324938-238-R-J1-PDC complex spheroids viability
Test: Anticancer human tumor 324938-238-R-J1-PDC patient-derived bladder carcinoma cell line growth inhibition [CLK]
Settings: for viability, T/C: stronger effect = lower value
From the text: A high-throughput screen of multi-cell type tumor spheroids was designed to identify active combinations of […] and targeted small molecules. Complex spheroids include a stromal component modeled by human endothelial cells (HUVEC) and fibroblasts modeled by human mesenchymal stem cells (MSCs). The concentration ranges selected for each drug and investigational agent were based upon clinically achievable concentrations if the clinical Cmax of the agent was known.
Compounds. The drugs and investigational agents: cirtuvivint (SM08502; NSC835563), CC-671 (NSC850746), vemurafenib (NSC761431), tapotoclax (NSC804041), sotorasib (NSC818433), adagrasib (NSC831453), MRTX-1133 (NSC836407), BAY2416964 (NSC825713), copanlisib (NSC816437), inavolisib (NSC800729), abemaciclib (NSC768073), osimertinib (NSC779217), entinostat (NSC756642), eltanexor (KPT-8602, NSC794443), venetoclax (NSC766270), ceralasertib (NSC777638), bortezomib (NSC756655), olaparib (NSC753686), talazoparib (NSC767125), alisertib (NSC759677), peposertib (NSC802822), gemcitabine (NSC613327), 5-fluorouracil (NSC19893), SN-38 (NSC673596), oxaliplatin (NSC266046), paclitaxel (NSC125973), and doxorubicin (NSC123127), were obtained from the National Cancer Institute (NCI) Developmental Therapeutics Program Chemical Repository. The FDA-approved anticancer drug set is available from the Developmental Therapeutics Program at https://dtp.cancer.gov/organization/dscb/obtaining/available plates.htm. […] The stock solutions were prepared in dimethyl sulfoxide (DMSO, Sigma-Aldrich, St. Louis, MO, cat. D2650), except for the platinum complexes which were prepared in saline (Quality Biological, Gaithersburg, MD, cat. 114-055-101), at 800-fold the tested concentration and stored at -70 degrees C prior to their use. All drugs and investigational agents were tested over a range starting from a high concentration at or near the clinical Cmax and decreasing in half-log increments. If the clinical Cmax for an agent had not been determined, the highest concentration tested was 10 microM.
Cell Culture. All cells were maintained in an incubator at 37 degrees C and 5% CO2 with 95% humidity. The PDC lines were cultured according to standard operating procedures established by the NCI PDMR. Briefly, all PDCs were thawed and cultured in Matrigel-coated flasks prepared with a working solution of 1X Ham's F-12 nutrient mix, without supplementation (Invitrogen, Waltham, MA, cat. 11765054), 100 U/mL penicillin-streptomycin (Invitrogen, cat. 15140122), and 2.5% Matrigel (Corning Inc., Corning, NY, cat. 354248) for the first three passages. The 947758-054-R-J2-PDC line was cultured in 6B/Colon 1A media, which includes advanced DMEM/F-12 (Thermo Fisher Scientific, cat. 12634028), 10 mM HEPES (Thermo Fisher Scientific, cat. 15630080), 1X GlutaMAX supplement (Thermo Fisher Scientific, cat. 35050061), 0.1 mg/mL primocin (InvivoGen, cat. ant-pm-2), 10% defined fetal bovine serum, heat inactivated (HyClone Laboratories Inc., cat. SH30070.03HI), 1.25 mM N-Acetyl-L-cysteine (Sigma-Aldrich, cat. A9165), 10 mM nicotinamide (Sigma-Aldrich, cat. N0636), 1X B-27 supplement (Thermo Fisher Scientific, cat. 17504044), 1X N-2 supplement (Thermo Fisher Scientific, cat. 17502048), and 10 microM Y-27632 dihydrochloride (Tocris Bioscience, cat. 1254). The 876862-298-R-J1-PDC was cultured in 6E media, which includes all 6B/Colon 1A media components plus 50% L-WRN conditioned media (ATCC, cat. CRL-3276), 50 ng/mL recombinant human EGF recombinant protein (hEGF; Thermo Fisher Scientific, cat. PHG0311), 10 ng/mL recombinant human fibroblast growth factor 10 (hGFG-10; PeproTech, cat. 100-26), 1 ng/mL recombinant human fibroblast growth factor 2 (hFGF-2; PeproTech, cat. 100-18B), and 1 µM prostaglandin E2 (PGE2; Tocris, cat. 2296). The 227483-062-R1-J1-PDC line was cultured in Panc media, containing all 6E components except hFGF-2, with the addition of 500 nM SB-431542 (Selleckchem, cat. S1067) and 10 nM gastrin (Tocris, cat. 3006). […]

[1] = curve of first compound, second compound 0.0316 µM
[2] = curve of first compound, second compound 0.1 µM
[3] = curve of first compound, second compound 0.316 µM
[4] = curve of first compound, second compound 1 µM
[5] = curve of first compound, second compound 3.16 µM
[6] = curve of first compound, second compound 10 µM
[7] = second compound 0.0316 µM, first compound 0.0316 µM
[8] = second compound 0.0316 µM, first compound 0.1 µM
[9] = second compound 0.0316 µM, first compound 0.316 µM
[10] = second compound 0.0316 µM, first compound 1 µM
[11] = second compound 0.0316 µM, first compound 3.16 µM
[12] = second compound 0.0316 µM, first compound 10 µM
[13] = second compound 0.1 µM, first compound 0.0316 µM
[14] = second compound 0.1 µM, first compound 0.1 µM
[15] = second compound 0.1 µM, first compound 0.316 µM
[16] = second compound 0.1 µM, first compound 1 µM
[17] = second compound 0.1 µM, first compound 3.16 µM
[18] = second compound 0.1 µM, first compound 10 µM
[19] = second compound 0.316 µM, first compound 0.0316 µM
[20] = second compound 0.316 µM, first compound 0.1 µM
[21] = second compound 0.316 µM, first compound 0.316 µM
[22] = second compound 0.316 µM, first compound 1 µM
[23] = second compound 0.316 µM, first compound 3.16 µM
[24] = second compound 0.316 µM, first compound 10 µM
[25] = second compound 1 µM, first compound 0.0316 µM
[26] = second compound 1 µM, first compound 0.1 µM
[27] = second compound 1 µM, first compound 0.316 µM
[28] = second compound 1 µM, first compound 1 µM
[29] = second compound 1 µM, first compound 3.16 µM
[30] = second compound 1 µM, first compound 10 µM
[31] = second compound 3.16 µM, first compound 0.0316 µM
[32] = second compound 3.16 µM, first compound 0.1 µM
[33] = second compound 3.16 µM, first compound 0.316 µM
[34] = second compound 3.16 µM, first compound 1 µM
[35] = second compound 3.16 µM, first compound 3.16 µM
[36] = second compound 3.16 µM, first compound 10 µM
[37] = second compound 10 µM, first compound 0.0316 µM
[38] = second compound 10 µM, first compound 0.1 µM
[39] = second compound 10 µM, first compound 0.316 µM
[40] = second compound 10 µM, first compound 1 µM
[41] = second compound 10 µM, first compound 3.16 µM
[42] = second compound 10 µM, first compound 10 µM
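Note: viability read after seven days of drug exposure.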
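Throughout, for viability, T/C: 100% = DMSO vehicle control wells.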

SMILES: CCCS(=O)(=O)Nc1ccc(F)c(C(=O)c2c[nH]c3ncc(-c4ccc(Cl)cc4)cc23)c1F + CN1CCN(c2cc(C(=O)Nc3cc4cc(-c5cnn(C)c5)ccc4cn3)ccn2)CC1
IC50 [1]: > 10 µM
IC50 [2]: 8.33 µM
IC50 [3]: < 0.0316 µM
IC50 [4]: < 0.0316 µM
IC50 [5]: < 0.0316 µM
IC50 [6]: < 0.0316 µM
viability, T/C [7]: 76.9%
viability, T/C [8]: 96%
viability, T/C [9]: 92.7%
viability, T/C [10]: 114%
viability, T/C [11]: 102%
viability, T/C [12]: 58.3%
viability, T/C [13]: 61.2%
viability, T/C [14]: 61.3%
viability, T/C [15]: 52%
viability, T/C [16]: 65.7%
viability, T/C [17]: 60.1%
viability, T/C [18]: 39.1%
viability, T/C [19]: 24.1%
viability, T/C [20]: 27.6%
viability, T/C [21]: 24.5%
viability, T/C [22]: 27.2%
viability, T/C [23]: 26%
viability, T/C [24]: 24.8%
viability, T/C [25]: 1.58%
viability, T/C [26]: 1.65%
viability, T/C [27]: 1.22%
viability, T/C [28]: 0.96%
viability, T/C [29]: 1.9%
viability, T/C [30]: 0.6%
viability, T/C [31]: 0.52%
viability, T/C [32]: 0.23%
viability, T/C [33]: 0.3%
viability, T/C [34]: 0.13%
viability, T/C [35]: 0.14%
viability, T/C [36]: 0.21%
viability, T/C [37]: 0.56%
viability, T/C [38]: 0.19%
viability, T/C [39]: 0.19%
viability, T/C [40]: 0.31%
viability, T/C [41]: 0.18%
viability, T/C [42]: 0.62%

SMILES: COC1C=CCC(C)C(C)S(=O)(=O)NC(=O)c2ccc3c(c2)N(CC2CCC21)CC1(CCCc2cc(Cl)ccc21)CO3 (centres undefined)
viability, T/C (compound 0.0316 µM): 73.8% and 71.3%
viability, T/C (compound 0.1 µM): 78.3% and 65.3%
viability, T/C (compound 0.316 µM): 39.4% and 28.4%
viability, T/C (compound 1 µM): 21% and 21.4%
viability, T/C (compound 3.16 µM): 17.9% and 14.6%
viability, T/C (compound 10 µM): 10.5% and 7.78%
IC50 (curve of compound): 0.227 µM and 0.16 µM

SMILES: CCc1c2c(nc3ccc(O)cc13)-c1cc3c(c(=O)n1C2)COC(=O)[C@]3(O)CC
viability, T/C (compound 0.00316 µM): 14.5% and 16.4%
viability, T/C (compound 0.01 µM): 10.3% and 12.2%
viability, T/C (compound 0.0316 µM): 10.7% and 11.6%
viability, T/C (compound 0.1 µM): 10.8% and 13.9%
viability, T/C (compound 0.316 µM): 7.67% and 11.4%
viability, T/C (compound 1 µM): 2.3% and 1.78%
IC50 (curve of compound): < 0.00316 µM

SMILES: COc1c(OCCCN2CCOCC2)ccc2c3n(c(=NC(=O)c4cnc(N)nc4)nc12)CCN3
viability, T/C (compound 0.00316 µM): 64.9% and 69.6%
viability, T/C (compound 0.01 µM): 49.7% and 52.5%
viability, T/C (compound 0.0316 µM): 30.7% and 33.4%
viability, T/C (compound 0.1 µM): 15.3% and 19%
viability, T/C (compound 0.316 µM): 4.22% and 7.44%
viability, T/C (compound 1 µM): 0.44% and 1.03%
IC50 (curve of compound): 0.00979 µM and 0.0115 µM

SMILES: COc1cccc2c1C(=O)c1c(O)c3c(c(O)c1C2=O)CC(O)(C(=O)CO)CC3OC1CC(N)C(O)C(C)O1 (centres undefined)
viability, T/C (compound 0.0316 µM): 18.6% and 20.6%
viability, T/C (compound 0.1 µM): 12.3% and 18%
viability, T/C (compound 0.316 µM): 7.21% and 8.55%
viability, T/C (compound 1 µM): 1.1% and 0.74%
viability, T/C (compound 3.16 µM): 0.07% and 0.13%
viability, T/C (compound 10 µM): 0.18% and 0.15%
IC50 (curve of compound): < 0.0316 µM

Second part, led by results:

IC50 (curve of compound): 0.00912 µM and 0.0118 µM
SMILES: Cn1ncnc1[C@H]1c2n[nH]c(=O)c3cc(F)cc(c23)N[C@@H]1c1ccc(F)cc1
viability, T/C (compound 0.000316 µM): 84.5% and 92.7%
viability, T/C (compound 0.001 µM): 78.8% and 76.2%
viability, T/C (compound 0.00316 µM): 60% and 68.3%
viability, T/C (compound 0.01 µM): 50% and 55.5%
viability, T/C (compound 0.0316 µM): 37.4% and 33.3%
viability, T/C (compound 0.1 µM): 28.4% and 24.7%

IC50 [1]: 4.7 µM
IC50 [2]: < 0.0316 µM
IC50 [3]: < 0.0316 µM
IC50 [4]: < 0.0316 µM
IC50 [5]: < 0.0316 µM
IC50 [6]: < 0.0316 µM
SMILES: C#Cc1c(F)ccc2cc(O)cc(-c3ncc4c(N5CC6CCC(C5)N6)nc(OCC56CCCN5CC(F)C6)nc4c3F)c12 (centres undefined) + CNC(=O)c1ccc(Nc2nc(OC3CCCC3)c3c(-c4ccc5nc(C)oc5c4)c[nH]c3n2)c(OC)c1
viability, T/C [7]: 73.7%
viability, T/C [8]: 87.6%
viability, T/C [9]: 71.8%
viability, T/C [10]: 69.6%
viability, T/C [11]: 57.8%
viability, T/C [12]: 35.7%
viability, T/C [13]: 29.6%
viability, T/C [14]: 29.6%
viability, T/C [15]: 21.5%
viability, T/C [16]: 22.8%
viability, T/C [17]: 20.5%
viability, T/C [18]: 18.6%
viability, T/C [19]: 20.1%
viability, T/C [20]: 18.9%
viability, T/C [21]: 14.5%
viability, T/C [22]: 16.9%
viability, T/C [23]: 12.7%
viability, T/C [24]: 14.8%
viability, T/C [25]: 14.8%
viability, T/C [26]: 14.9%
viability, T/C [27]: 13.8%
viability, T/C [28]: 15.1%
viability, T/C [29]: 14.8%
viability, T/C [30]: 15.6%
viability, T/C [31]: 13.5%
viability, T/C [32]: 16.4%
viability, T/C [33]: 14.8%
viability, T/C [34]: 16.8%
viability, T/C [35]: 12.4%
viability, T/C [36]: 12.4%
viability, T/C [37]: 15.9%
viability, T/C [38]: 18%
viability, T/C [39]: 16.2%
viability, T/C [40]: 16.8%
viability, T/C [41]: 16.2%
viability, T/C [42]: 11.5%
